Laboratory results taken from patent publication US5086056A, “2-(heterocyclylalkyl)imidazopyridines” (Janssen Pharmaceutica N.V., priority 1987, dated 1992).

System: compound 48/80-induced lethality
Assay: Protection of rats from compound 48/80-induced lethality
Type: in vivo, rat (male, inbred Wistar strain)
Conditions: Rattus norvegicus; dose protecting 50% of animals; s.c. or oral, 1 hour before compound 48/80 0.5 mg/kg i.v.; survival after 4 hours; read-out: compound 48/80 lethality test in rats-ED50
Description: Protection of rats from compound 48/80-induced lethality
Compound 48/80, a mixture of oligomers obtained by condensation of 4-methoxy-N-methylbenzeneethanamine and formaldehyde has been described as a potent histamine releasing agent (Int. Arch. Allergy, 13, 336 (1958)). The protection from compound 48/80-induced lethal circulatory collapse appears to be a simple way of evaluating quantitatively the antihistaminic activity of test compounds. Male rats of an inbred Wistar strain, weighing 240-260 g were used in the experiment. After overnight starvation the rats were transferred to conditioned laboratories (temp.=21°±1° C., relative humidity=65±5%). The rats were treated subcutaneously or orally with a test compound or with the solvent (NaCl solution, 0.9%). One hour after treatment there was injected intraveneously compound 48/80, freshly dissolved in water, at a dose of 0.5 mg/kg (0.2 ml/100 g of body weight). In control experiments, wherein 250 solvent-treated animals were injected with the standard dose of compound 48/80, not more than 2.8% of the animals survived after 4 hours. Survival after 4 hours is therefore considered to be a safe criterion of a protective effect of drug administration. Said ED50 -values are the values in mg/kg body weight at which the tested compounds protect 50% of the tested animals against compound 48/80-induced lethality.

Compound	ED50
CCOCCn1c(CN2CCN(CCC(=O)NC(C)C)CC2)nc2cccnc21 [Compound 93, 4-[[3-(2-ethoxyethyl)-3H-imidazo[4,5-b]pyridin-2-yl]methyl]-N-(1-methylethyl)-1-piperazinepropanamide]	0.01 mg/kg
CCOCCn1c(CN2CCN(C)CC2)nc2cccnc21 [Compound 17, 3-(2-ethoxyethyl)-2-[(4-methyl-1-piperazinyl)methyl]-3H-imidazo[4,5-b]pyridine]	0.04 mg/kg
C=CCOCCn1c(CN2CCN(C)CC2)nc2cccnc21 [Compound 126, 2-[(4-methyl-1-piperazinyl)methyl]-3-[2-(2-propenyloxy)ethyl]-3H-imidazo[4,5-b]pyridine]	0.02 mg/kg
C#CCOCCn1c(CN2CCN(C)CC2)nc2cccnc21 [Compound 125, 2-[(4-methyl-1-piperazinyl)methyl]-3-[2-(2-propynyloxy)ethyl]-3H-imidazo[4,5-b]pyridine]	0.02 mg/kg
CCOCCn1c(CN2CCN(CCCOc3ccc(F)cc3)CC2)nc2cccnc21 [Compound 79, 3-(2-ethoxyethyl)-2-[[4-[3-(4-fluorophenoxy)propyl]-1-piperazinyl]methyl]-3H-imidazo[4,5-b]pyridine]	0.02 mg/kg
CCOCCn1c(CN2CCN(CCc3c(C)nc4ccccn4c3=O)CC2)nc2cccnc21 [Compound 76, 3-[2-[4-[[3-(2-ethoxyethyl)-3H-imidazo[4,5-b]pyridin-2-yl]methyl]-1-piperazinyl]ethyl]-2-methyl-4H-pyrido[1,2-a]pyrimidin-4-one]	0.02 mg/kg
CCOCCn1c(CN2CCN(CCNC(=O)c3ccoc3)CC2)nc2cccnc21 [Compound 110, N-[2-[4-[[3-(2-ethoxyethyl)-3H-imidazo[4,5-b]pyridin-2-yl]methyl]-1-piperazinyl]ethyl]-3-furancarboxamide]	0.01 mg/kg
CCOCCn1c(CN2CCN(CCCn3c(=O)[nH]c4ccccc43)CC2)nc2cccnc21 [Compound 77, 1-[3-[4-[[3-(2-ethoxyethyl)-3H-imidazo[4,5-b]pyridin-2-yl]methyl]-1piperazinyl]propyl]-1,3-dihydro-2H-benzimidazol-2-one]	0.02 mg/kg
Cc1ccc(Cn2c(CN3CCN(C)CC3)nc3cccnc32)o1 [Compound 14, 3-[(5-methyl-2-furanyl)methyl]-2-[ (4-methyl-1-piperazinyl)methyl]-3H-imidazo[4,5-b]pyridine]	0.01 mg/kg
CCOCCn1c(CN2CCN(CCc3ccccn3)CC2)nc2cccnc21 [Compound 120, 3-(2-ethoxyethyl)-2-[[4-[2-(2-pyridinyl)ethyl]-1-piperazinyl]methyl]-3H-imidazo[4,5-b]pyridine]	0.005 mg/kg
CCOCCN1CCN(Cc2nc3cccnc3n2CCOCC)CC1 [Compound 42]	0.02 mg/kg
CCOCCn1c(CN2CCN(CCCC(C)=O)CC2)nc2cccnc21 [Compound 44]	0.005 mg/kg
CCOCCn1c(CN2CCN(CCNC(=O)c3cccn3C)CC2)nc2cccnc21 [Compound 111, N-[2-[4-[[3-(2-ethoxyethyl)-3H-imidazo[4,5-b]pyridin-2-yl]methyl]-1-piperazinyl]ethyl]-1-methyl-1H-pyrrole-2-carboxamide]	0.02 mg/kg
CCOCCn1c(CN2CCN(CCNc3ncccn3)CC2)nc2cccnc21 [Compound 105, N-[2-[-4-[[3-(2-ethoxyethyl)-3H-imidazo[4,5-b]pyridin-2-yl]methyl]-1-piperazinyl]ethyl]-2-pyrimidinamine]	0.01 mg/kg
CCOCCn1c(CN2CCN(CCc3scnc3C)CC2)nc2cccnc21 [Compound 74, 3-(2-ethoxyethyl)-2-[[4-[2-(4-methyl-5-thiazolyl)ethyl]-1-piperazinyl]methyl]-3H-imidazo[4,5-b]pyridine]	0.01 mg/kg
CCOCCn1c(CN2CCN(CCc3ccc(OC)cc3)CC2)nc2cccnc21 [Compound 47]	0.02 mg/kg
